Laboratory results taken from the supplement of paper PMC4862054.

Legend:
Details in all cases: 72 h
[1] = tested on: BT-474
In short: (§1)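 In this assay, breast cancer cell lines spent 72 h with compound at 5 concentrations in 10-fold steps over a compound-specific 10,000-fold range. The first readout was cell death by CellTox Green fluorescence, and the second was viability by CellTiter-Glo luminescence, each normalised per plate to 0.1 % DMSO and a positive kill control. EC50 came from the dose-response curves, censored at the top concentration.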

[2] = tested on: BT-549
In short: as §1

[3] = tested on: CAL-120
In short: as §1

[4] = tested on: CAL-148
In short: as §1

[5] = tested on: CAL-51
In short: as §1

[6] = tested on: CAL-85-1
In short: as §1

[7] = tested on: DU-4475
In short: as §1

[8] = tested on: HCC1143
In short: as §1

[9] = tested on: HCC1599
In short: as §1

[10] = tested on: Hs578T
In short: as §1

[11] = tested on: MDA-MB-231
In short: as §1

[12] = tested on: MDA-MB-436
In short: as §1

[13] = tested on: MDA-MB-468
In short: as §1

[14] = tested on: SK-BR-3
In short: as §1

[15] = tested on: CAL-51; remark: listed apart in the source
In short: (§2)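 Each 384-well plate was pre-loaded with compound dissolved in 5 µl medium, received breast cancer cells in 20 µl suspension, and was incubated 72 h. A 2.5 µl addition of CellTiter-Blue for 2 h at 37 °C was followed by a fluorescence read at 560/590 nm. Data were normalised per plate to vehicle and a positive kill control and checked by Z'-factor. EC50 was fitted from the percent-inhibition dose-response curve, censored at the highest concentration, excluding rows with a drug sensitivity score of zero.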

[16] = tested on: CAL-85-1; remark: listed apart in the source
In short: as §2

[17] = tested on: DU-4475; remark: listed apart in the source
In short: as §2

[18] = tested on: HDQ-P1
In short: as §2

[19] = tested on: BT-549; remark: listed apart in the source
In short: as §2

[20] = tested on: HCC1143; remark: listed apart in the source
In short: as §2

[21] = tested on: HCC1599; remark: listed apart in the source
In short: as §2

[22] = tested on: Hs578T; remark: listed apart in the source
In short: as §2

[23] = tested on: MDA-MB-436; remark: listed apart in the source
In short: as §2

[24] = tested on: MDA-MB-468; remark: listed apart in the source
In short: as §2

[25] = tested on: SK-BR-3; remark: listed apart in the source
In short: as §2

[26] = tested on: CAL-120; remark: listed apart in the source
Procedure: (§3)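 Drug sensitivity and resistance testing (DSRT) of breast cancer cell lines in 384-well plates, 5 concentrations in 10-fold dilutions over a compound-specific 10,000-fold range. After 72 h, cytotoxicity was read by CellTox Green fluorescence and viability by CellTiter-Glo luminescence (multiplexed), normalised to DMSO and benzethonium chloride controls. EC50 is the inflection point of the fitted dose-response curve (bottom asymptote free, so it can be relative for partial curves) and is censored at the highest tested concentration. Rows with DSS 0 (no meaningful response) were excluded.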

[27] = tested on: CAL-148; remark: listed apart in the source
Procedure: as §3

[28] = tested on: CAL-51; remark: listed apart in the source
Procedure: as §3

[29] = tested on: CAL-85-1; remark: listed apart in the source
Procedure: as §3

[30] = tested on: DU-4475; remark: listed apart in the source
Procedure: as §3

[31] = tested on: Hs578T; remark: listed apart in the source
Procedure: as §3

[32] = tested on: MDA-MB-468; remark: listed apart in the source
Procedure: as §3

[33] = tested on: MFM-223
In short: as §2

[34] = tested on: BT-549; remark: listed apart in the source
Procedure: as §3

[35] = tested on: MDA-MB-436; remark: listed apart in the source
Procedure: as §3

[36] = tested on: MCF-10A
In short: as §1

[37] = tested on: MDA-MB-231; remark: listed apart in the source
Procedure: as §3

[38] = tested on: HCC1937
In short: as §1

[39] = tested on: HDQ-P1; remark: listed apart in the source
In short: as §1

[40] = tested on: MDA-MB-453
In short: as §1

[41] = tested on: MFM-223; remark: listed apart in the source
In short: as §1

[42] = tested on: HCC1937; remark: listed apart in the source
Procedure: as §3

In the case of COc1cc([C@@H]2c3cc4c(cc3[C@@H](O[C@@H]3O[C@@H]5CO[C@@H](C)O[C@H]5[C@H](O)[C@H]3O)[C@H]3COC(=O)[C@H]23)OCO4)cc(OC)c1O [Etoposide], the “EC50, CellTiter-Glo” value [1] is reported as 2.81 µM, the “EC50, CellTiter-Glo” value [2] is reported as 3.99 µM and the “EC50, CellTiter-Glo” value [3] is reported as 1.55 µM. For the same compound, the “EC50, CellTiter-Glo” value [4] was 0.98 µM, the “EC50, CellTiter-Glo” value [5] was 1.09 µM and the “EC50, CellTiter-Glo” value [6] was 9.97 µM. The “EC50, CellTiter-Glo” value [7] was 1.26 µM, the “EC50, CellTiter-Glo” value [8] was 1.65 µM and the “EC50, CellTiter-Glo” value [9] was 1.15 µM. For the same compound, the “EC50, CellTiter-Glo” value [10] was 1.49 µM, the “EC50, CellTiter-Glo” value [11] was 1.85 µM and the “EC50, CellTiter-Glo” value [12] was 0.977 µM. The “EC50, CellTiter-Glo” value [13] was 1.73 µM, the “EC50, CellTiter-Glo” value [14] was 1.21 µM and the “EC50, CellTiter-Blue viability” value [15] was 0.367 µM. For the same compound, the “EC50, CellTiter-Blue viability” value [16] was 2.55 µM, the “EC50, CellTiter-Blue viability” value [17] was 0.18 µM and the “EC50, CellTiter-Blue viability” value [18] was 0.775 µM. The “EC50, CellTiter-Blue viability” value [19] was 0.224 µM, the “EC50, CellTiter-Blue viability” value [20] was 1.6 µM and the “EC50, CellTiter-Blue viability” value [21] was 1.7 µM. The “EC50, CellTiter-Blue viability” value [22] was 3.04 µM, the “EC50, CellTiter-Blue viability” value [23] was 2.61 µM and the “EC50, CellTiter-Blue viability” value [24] was 1.81 µM. The “EC50, CellTiter-Blue viability” value [25] was 0.785 µM, the “EC50, CellTox Green” value [26] was 3.67 µM and the “EC50, CellTox Green” value [27] was 3.02 µM. For the same compound, the “EC50, CellTox Green” value [28] was 0.624 µM, the “EC50, CellTox Green” value [29] was 7.71 µM and the “EC50, CellTox Green” value [30] was 3.83 µM. The “EC50, CellTox Green” value [31] was 0.0558 µM and the “EC50, CellTox Green” value [32] was 2.33 µM.

With C[C@]12CC[C@@H]3c4ccc(O)cc4C[C@@H](CCCCCCCCC[S+]([O-])CCCC(F)(F)C(F)(F)F)[C@H]3[C@@H]1CC[C@@H]2O (stereo partly drawn) [Fulvestrant] the “EC50, CellTiter-Blue viability” value [33] was 0.0745 µM.

For O=P1(NCCCl)OCCCN1CCCl (stereo not drawn) [Ifosfamide], the “EC50, CellTiter-Glo” value [1] was > 10 µM, the “EC50, CellTox Green” value [34] was > 10 µM and the “EC50, CellTox Green” value [35] was > 10 µM.

In the case of CC(C)Cn1cnc2c(N)nc3ccccc3c21 [Imiquimod], the “EC50, CellTox Green” value [34] is reported as > 2.5 µM.

N#CCNC(=O)c1ccc(-c2ccnc(Nc3ccc(N4CCOCC4)cc3)n2)cc1 [Momelotinib] was tested, and the “EC50, CellTiter-Glo” value [1] was 5.78 µM, the “EC50, CellTiter-Glo” value [2] was 2.11 µM and the “EC50, CellTiter-Glo” value [3] was 1.38 µM. For the same compound, the “EC50, CellTiter-Glo” value [6] was 2.16 µM, the “EC50, CellTiter-Glo” value [8] was 1.57 µM and the “EC50, CellTiter-Glo” value [10] was 2.24 µM. For the same compound, the “EC50, CellTiter-Glo” value [36] was 6.59 µM, the “EC50, CellTiter-Glo” value [11] was 5.19 µM and the “EC50, CellTiter-Glo” value [13] was 3.48 µM. For the same compound, the “EC50, CellTiter-Glo” value [14] was 2.9 µM, the “EC50, CellTox Green” value [34] was 3.3 µM and the “EC50, CellTox Green” value [29] was 1.63 µM. The “EC50, CellTox Green” value [37] was 0.0772 µM and the “EC50, CellTox Green” value [32] was 5.27 µM.

In the case of CC1(C)NC(=O)N(c2ccc([N+](=O)[O-])c(C(F)(F)F)c2)C1=O [Nilutamide], the “EC50, CellTiter-Glo” value [5] is reported as 0.724 µM.

In the case of CCCCCCCCCCCCCCCCCCOP(=O)([O-])OC1CC[N+](C)(C)CC1 [Perifosine], the “EC50, CellTiter-Glo” value [38] is reported as 2.08 µM, the “EC50, CellTiter-Glo” value [36] is reported as > 2.5 µM and the “EC50, CellTiter-Glo” value [12] is reported as > 2.5 µM.

Cc1ccc(C(=O)Nc2ccc(CN3CCN(C)CC3)c(C(F)(F)F)c2)cc1C#Cc1cnc2cccnn12 [Ponatinib] was tested, and the “EC50, CellTiter-Glo” value [1] was 0.244 µM, the “EC50, CellTiter-Glo” value [2] was 0.689 µM and the “EC50, CellTiter-Glo” value [3] was 0.162 µM. For the same compound, the “EC50, CellTiter-Glo” value [5] was 0.844 µM, the “EC50, CellTiter-Glo” value [6] was > 1 µM and the “EC50, CellTiter-Glo” value [7] was 0.588 µM. For the same compound, the “EC50, CellTiter-Glo” value [38] was > 1 µM, the “EC50, CellTiter-Glo” value [39] was 0.22 µM and the “EC50, CellTiter-Glo” value [36] was 0.643 µM. For the same compound, the “EC50, CellTiter-Glo” value [11] was 0.382 µM, the “EC50, CellTiter-Glo” value [12] was 0.265 µM and the “EC50, CellTiter-Glo” value [40] was > 1 µM. The “EC50, CellTiter-Glo” value [13] was > 1 µM, the “EC50, CellTiter-Glo” value [41] was 0.0318 µM and the “EC50, CellTiter-Blue viability” value [15] was 0.869 µM. The “EC50, CellTiter-Blue viability” value [18] was 0.307 µM, the “EC50, CellTiter-Blue viability” value [19] was 0.893 µM and the “EC50, CellTiter-Blue viability” value [21] was 0.217 µM. For the same compound, the “EC50, CellTiter-Blue viability” value [22] was > 1 µM, the “EC50, CellTiter-Blue viability” value [33] was 0.00843 µM and the “EC50, CellTox Green” value [26] was 0.482 µM. The “EC50, CellTox Green” value [42] was 0.387 µM and the “EC50, CellTox Green” value [37] was 0.231 µM.
